The source of these data is the CheMixHub viscosity set.

Where “and” joins values, the source holds several entries; their conditions need not be identical. Equal values may be shown once. ± gives the uncertainty stated by the source.

Broadly, the viscosity is the internal friction of a fluid under shear. Compound `CN1CCCCCC1=O` came in with a viscosity (298.16 K, 101 kPa) of 4.92 ± 0.042 mPa·s.

As to `CC(C)OC(C)C`, the viscosity is listed as 0.332 ± 0.017 mPa·s (293.15 K, 100 kPa); 0.34 ± 0.021 mPa·s (293.15 K, 101.33 kPa); 0.319 ± 0.017 mPa·s (298.15 K, 100 kPa); 0.315 ± 0.003 mPa·s (298.15 K, 101 kPa); 0.322 ± 0.02 mPa·s (298.15 K, 101.33 kPa); 0.304 ± 0.016 mPa·s (303.15 K, 100 kPa). Moreover, the viscosity by setting is: (303.15 K, 101.33 kPa) 0.31 ± 0.019 mPa·s; (308.15 K, 100 kPa) 0.29 ± 0.015 mPa·s and 0.29 ± 0.02 mPa·s; (308.15 K, 101.33 kPa) 0.293 ± 0.018 mPa·s; (313.15 K, 100 kPa) 0.274 ± 0.014 mPa·s; (313.15 K, 101.33 kPa) 0.279 ± 0.017 mPa·s; (318.15 K, 100 kPa) 0.261 ± 0.014 mPa·s. Where the note is “323.15 K, 100 kPa”, this compound came in with a viscosity of 0.246 ± 0.013 mPa·s.

On to `C1COCO1`, for which the viscosity (298.15 K, 101 kPa) is listed as 0.587 ± 0.0051 mPa·s; the viscosity (298.15 K, 101.3 kPa) worked out at 0.5919 ± 0.0055 mPa·s; the viscosity (303.15 K, 101 kPa) is reported as 0.62 ± 0.06 mPa·s; the viscosity (308.15 K, 101 kPa) was 0.58 ± 0.06 mPa·s and 0.513 ± 0.007 mPa·s and 0.5128 ± 0.013 mPa·s; the viscosity (313.15 K, 101 kPa) came out at 0.55 ± 0.06 mPa·s; the viscosity (313.15 K, 101.3 kPa) was 0.5 ± 0.0048 mPa·s. For the same compound, the viscosity by setting is: (318.15 K, 101 kPa) 0.53 ± 0.05 mPa·s and 0.458 ± 0.007 mPa·s and 0.458 ± 0.012 mPa·s; (323.15 K, 101 kPa) 0.4183 ± 0.024 mPa·s and 0.51 ± 0.05 mPa·s.

Take `CCCCCCCCc1ccccc1`: the viscosity reads like this: (293.15 K, 102 kPa) 2.57 ± 0.02 mPa·s; (303.15 K, 102 kPa) 2.08 ± 0.01 mPa·s; (313.15 K, 102 kPa) 1.73 ± 0.01 mPa·s; (323.15 K, 102 kPa) 1.46 ± 0.01 mPa·s.

Consider `COCOC`, for which the viscosity was determined as 0.371 ± 0.037 mPa·s (293.15 K, 100 kPa); 0.357 ± 0.036 mPa·s (298.15 K, 100 kPa); 0.304 ± 0.013 mPa·s (303.1 K, 101 kPa); 0.346 ± 0.035 mPa·s (303.15 K, 100 kPa); 0.337 ± 0.034 mPa·s (308.15 K, 100 kPa); 0.329 ± 0.033 mPa·s (313.15 K, 100 kPa).

As for `CCCOCC(C)O` (configuration not stated), the viscosity by setting is: (298.15 K, 100 kPa) 2.451 ± 0.15 mPa·s; (298.15 K, 101.33 kPa) 2.389 ± 0.036 mPa·s; (303.15 K, 100 kPa) 2.094 ± 0.15 mPa·s; (308.15 K, 100 kPa) 1.885 ± 0.15 mPa·s; (308.15 K, 101.33 kPa) 1.822 ± 0.028 mPa·s; (318.15 K, 101.33 kPa) 1.416 ± 0.022 mPa·s.

In turn, `O=S(Cl)Cl` registered a viscosity (298.15 K, 101 kPa) of 0.6194 ± 0.016 mPa·s.

On to `CC[NH2+]CC.O=S(=O)([O-])O`, for which the viscosity by setting is: (303.15 K, 101 kPa) 28.9 ± 0.6 mPa·s; (308.15 K, 101 kPa) 24.6 ± 0.51 mPa·s; (313.15 K, 101 kPa) 21.9 ± 0.45 mPa·s.

With `ClC(Cl)C(Cl)(Cl)Cl`, the viscosity is, setting by setting: (298.15 K, 101 kPa) 2.26 ± 0.06 mPa·s; (303.15 K, 101 kPa) 1.971 ± 0.019 mPa·s.

`CC(=O)c1ccccc1`: the viscosity is 1.455 ± 0.0088 mPa·s (303.15 K, 100 kPa); 1.533 ± 0.012 mPa·s (2×) and 1.533 ± 0.018 mPa·s and 1.533 ± 0.029 mPa·s (303.15 K, 101 kPa); 1.415 ± 0.1 mPa·s (308.15 K, 100 kPa); 1.233 ± 0.0076 mPa·s and 1.269 ± 0.1 mPa·s (313.15 K, 100 kPa); 1.266 ± 0.018 mPa·s and 1.266 ± 0.02 mPa·s and 1.269 ± 0.061 mPa·s (313.15 K, 101 kPa); 1.317 ± 0.26 mPa·s (313.15 K, 101.3 kPa). This compound yielded a viscosity (323.15 K, 100 kPa) of 1.061 ± 0.0067 mPa·s; a viscosity (323.15 K, 101 kPa) of 1.051 ± 0.044 mPa·s; a viscosity (323.15 K, 101.3 kPa) of 1.285 ± 0.26 mPa·s.

Consider `C#CCO`, for which the viscosity runs as follows: (303.15 K, 101 kPa) 1.345 ± 0.012 mPa·s; (308.15 K, 101 kPa) 1.214 ± 0.011 mPa·s; (308.15 K, 101.32 kPa) 1.221 ± 0.02 mPa·s; (313.15 K, 101 kPa) 1.103 ± 0.01 mPa·s; (313.15 K, 101.32 kPa) 1.12 ± 0.018 mPa·s; (318.15 K, 101 kPa) 1.01 ± 0.0095 mPa·s. Besides, the viscosity reads like this: (318.15 K, 101.32 kPa) 1.017 ± 0.017 mPa·s; (323.15 K, 101 kPa) 0.9277 ± 0.0088 mPa·s; (323.15 K, 101.32 kPa) 0.9331 ± 0.016 mPa·s.
